Results: BindingDB's records for patent US20240327385 (2024)

Target: T1, Renin (Homo sapiens, UniProt P00797)
T1 sequence (P00797 whole entry): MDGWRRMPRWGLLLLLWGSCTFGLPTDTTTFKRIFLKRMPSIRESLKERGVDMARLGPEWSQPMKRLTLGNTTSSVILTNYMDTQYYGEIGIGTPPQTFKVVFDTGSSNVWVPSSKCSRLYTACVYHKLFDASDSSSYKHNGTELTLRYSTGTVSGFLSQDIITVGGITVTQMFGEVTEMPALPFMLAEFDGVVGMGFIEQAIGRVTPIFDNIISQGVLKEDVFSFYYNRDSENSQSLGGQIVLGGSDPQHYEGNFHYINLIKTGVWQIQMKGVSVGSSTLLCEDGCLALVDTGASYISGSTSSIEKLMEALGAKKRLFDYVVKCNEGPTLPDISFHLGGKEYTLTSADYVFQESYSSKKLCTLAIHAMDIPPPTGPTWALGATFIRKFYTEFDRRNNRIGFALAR
Assay: Inhibitory Effects on Human Renin Activity Assay
Protocol: Briefly, human recombinant renin (from the kit) was incubated with the compound of the disclosure or buffer for 30 min at 37° C. before substrate addition. Fluorescence intensity was measured at 530 nm after an incubation of 15 min at 37° C. Data was analyzed by Prism and fitted into a sigmodal curve for IC50 calculation.

IC50: 1.6 nM
SMILES: CO[C@H]1C[C@H](Nc2cc(C3CC3)cnc2C(=O)N(CC(C)C)C2CNCC(C(=O)N3CCOC(C)(C)C3)C2)C1 (stereo partly specified) [US20240327385, Example 8]
